Measured values from patent publication US8853237B2, “Naphthyridinone analogs as mGluR5 positive allosteric modulators” (Vanderbilt University, priority 2010, dated 2014).

Columns and labels:
human mGluR5a receptor = human mGluR5a receptor (Homo sapiens, UniProt P41594); assay: Cell-based functional assay: Ca2+ mobilization (FDSS), potentiation of glutamate EC20 response; conditions: for EC50: HEK cells (H10H or H12H) transfected with human mGluR5, in presence of EC20 glutamate, >10 uM estimated where no plateau but >20% increase; for Emax: maximum average response at a single concentration, as percent of maximal glutamate response
Protocol: Table 1 below lists specific compounds as well as experimentally determined mGluR5 activity determined in a cell-based assay. The mGluR5 activity was determined using the metabotropic glutamate receptor activity assays in human embryonic kidney cells as described herein, wherein the human embryonic kidney cells were transfected with human mGluR5. The compounds in Table 1 were synthesized with methods identical or analogous to those shown herein. The column labeled “Rxn” and the data thereunder indicated in Table 1 refers to the Reaction Scheme number described above. The requisite starting materials were commercially available, described in the literature, or readily synthesized by one skilled in the art of organic synthesis.
Human mGluR5a cDNA in pCMV6-XL6 mammalian expression plasmid was purchased from OriGene Technologies, Inc. (catalogue number SC326357) and subcloned into pcDNA3.1(−). Human embryonic kidney (HEK)293A cells were then transfected with human mGluR5a pcDNA3.1(−) using LipofectAmine2000 (Invitrogen) and monoclones were selected and tested for functional response using a Ca^2+ mobilization assay. Monoclones were named for the species (“H” for human) plus the location on the plate (e.g. “10H”).
HEK cells transfected with the human mGluR5a receptor (H10H or H12H cell line) were plated at 15,000 cells/well in clear-bottomed poly-D-lysine-coated assay plates (BD Falcon) in glutamate-glutamine-free growth medium and incubated overnight at 37° C. and 5% CO2. Cell-lines used were either the H10H or H12H cell-lines expressing the human mGluR5 receptor. The following day, the growth medium was removed and the cells were washed with assay buffer containing 1× Hank's balanced salt solution (Invitrogen, Carlsbad, Calif.), 20 mM HEPES, 2.5 mM probenecid, pH 7.4 and left with 20 μL of this reagent. Following this step, the cells were loaded with calcium indicator dye, fluo-4 AM, to a final concentration of 2 μM and incubated for 40-45 min at 37° C. The dye solution was removed and replaced with assay buffer. Cell plates were held for 10-15 min at room temperature and were then loaded into the Functional Drug Screening System 6000 (FDSS 6000, Hamamatsu, Japan).
After establishment of a fluorescence baseline for about 3 seconds, the compounds of the present invention were added to the cells, and the response in cells was measured. 2.3 minutes later an EC20 concentration of the mGluR5 receptor agonist glutamate was added to the cells, and the response of the cells was measured for about 1.7 minutes. All test compounds were dissolved and diluted to a concentration of 10 mM in 100% DMSO and then serially diluted into assay buffer for a 2× stock solution in 0.6% DMSO; stock compounds were then added to the assay for a final DMSO concentration of 0.3% after the first addition to the assay well. Calcium fluorescence measures were recorded as fold over basal fluorescence; raw data was then normalized to the maximal response to glutamate. Potentiation of the agonist response of the mGluR5 receptor in the present invention was observed as an increase in response to submaximal concentrations of glutamate in the presence of compound compared to the response to glutamate in the absence of compound.
The concentration-response curves of compounds of the present invention, obtained in the presence of EC20 of mGluR5 receptor agonist glutamate to determine positive allosteric modulation, were generated using Microsoft Excel with IDBS XLfit add-ins. The raw data file containing all time points was used as the data source in the analysis template. This was saved by the FDSS as a tab-delimited text file. Data were normalized using a static ratio function (F/F0) for each measurement of the total 350 values per well divided by each well's initial value. Data was then reduced as to peak amplitudes (Max—Initial Min) using a time range that starts approximately 1 second after the glutamate EC20 addition and continues for approximately 40 seconds. […]

[1] = system: amphetamine-induced hyperlocomotion; assay: Reversal of amphetamine-induced hyperlocomotion; type: in vivo, male Sprague-Dawley rats; conditions: 10 mg/kg, vehicle 20% HP-beta-CD; amphetamine 1 mg/kg sc; rat
Protocol: Locomotor activity was assessed as mean distance traveled (cm) in standard 16×16 photocell testing chambers measuring 43.2 cm (Length)×43.2 cm (Width)×30.5 cm (Height) (Med Associates, St. Albans, Vt.). Animals were habituated to individual activity chambers for at least 30 min prior to drug administration. Following administration of drug or vehicle, activity was recorded for a […] time period. Data was expressed as the mean (±SEM) distance traveled recorded in 5 min intervals over the test period. The data were analyzed using repeated measures analysis of variance (ANOVA) followed by post-hoc testing using Dunnett's test, when appropriate. A difference was considered significant when p≦0.05. Amphetamine sulfate was obtained from Sigma (Cat#A5880-1G; St. Louis, Mo.) and 10 mg was dissolved in 10 ml of water. Test compound, 2-((3-fluorobenzyl)oxy)-7,8-dihydro-1,6-naphthyridin-5(6H)-one, was formulated in a volume of 10 ml with an amount of drug appropriate to the dosage indicated. […] At 60 min, all rats were injected subcutaneously with 1 mg/kg amphetamine or vehicle and then monitored for an additional 60 min. Animals are monitored for a total of 120 minutes. Data are expressed as changes in ambulation defined as total number of beam breaks per 5 min periods. The data for the dose-response studies were analyzed by a between-group analysis of variance. […]

human mGluR5a receptor, sequence (P41594 21-1180 isoform P41594-2 limits assumed): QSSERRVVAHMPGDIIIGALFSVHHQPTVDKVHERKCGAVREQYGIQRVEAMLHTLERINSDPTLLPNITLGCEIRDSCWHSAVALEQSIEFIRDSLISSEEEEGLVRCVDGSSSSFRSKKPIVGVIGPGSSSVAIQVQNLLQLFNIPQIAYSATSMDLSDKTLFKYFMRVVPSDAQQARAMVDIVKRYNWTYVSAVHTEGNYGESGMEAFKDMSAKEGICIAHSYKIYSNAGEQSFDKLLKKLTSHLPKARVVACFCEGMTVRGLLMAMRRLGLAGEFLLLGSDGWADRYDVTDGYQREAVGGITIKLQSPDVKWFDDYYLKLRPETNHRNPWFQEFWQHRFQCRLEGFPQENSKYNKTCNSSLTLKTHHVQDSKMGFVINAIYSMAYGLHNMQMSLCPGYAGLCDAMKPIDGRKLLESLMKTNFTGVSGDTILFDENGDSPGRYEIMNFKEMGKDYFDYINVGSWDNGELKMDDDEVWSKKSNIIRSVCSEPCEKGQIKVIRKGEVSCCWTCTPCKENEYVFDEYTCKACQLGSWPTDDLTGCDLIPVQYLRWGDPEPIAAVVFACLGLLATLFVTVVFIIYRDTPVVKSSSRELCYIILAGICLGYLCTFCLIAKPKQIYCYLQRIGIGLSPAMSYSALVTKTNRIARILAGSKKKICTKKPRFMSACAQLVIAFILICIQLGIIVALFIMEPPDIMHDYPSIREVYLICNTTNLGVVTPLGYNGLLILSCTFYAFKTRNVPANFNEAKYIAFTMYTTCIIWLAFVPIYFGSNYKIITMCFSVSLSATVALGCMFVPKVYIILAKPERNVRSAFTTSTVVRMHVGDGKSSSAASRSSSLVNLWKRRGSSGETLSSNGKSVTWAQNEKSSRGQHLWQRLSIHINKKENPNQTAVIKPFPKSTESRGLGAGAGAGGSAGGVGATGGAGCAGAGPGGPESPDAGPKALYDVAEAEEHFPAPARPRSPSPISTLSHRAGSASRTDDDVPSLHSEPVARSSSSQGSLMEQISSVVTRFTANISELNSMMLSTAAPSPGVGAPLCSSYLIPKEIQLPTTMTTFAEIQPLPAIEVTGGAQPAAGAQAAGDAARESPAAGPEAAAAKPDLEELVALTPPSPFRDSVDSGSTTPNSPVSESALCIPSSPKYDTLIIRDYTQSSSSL

| EC50 (human mGluR5a receptor) | Emax (human mGluR5a receptor) | SMILES | apparent reversal of amphetamine-induced hyperlocomotion [1] |
| --- | --- | --- | --- |
| 200 nM | 72% | O=C1c2ccc(COc3cccc(F)c3)nc2CCN1c1ccc(F)cc1 [compound 6] |  |
| > 10000 nM | 46% | COc1ccc(CN2CCc3ncc(OCc4ccccc4)cc3C2=O)cc1 [compound 14] |  |
| 730 nM | 76% | O=C1c2ncc(COc3ccccc3)cc2CCN1c1ccc(F)cc1 [compound 8] |  |
| 630 nM | 39% | O=C1c2ccc(OCc3cccc(F)c3)nc2CCN1CC1CCC1 [compound 11] |  |
| > 30000 nM |  | Cc1cccc(N2CCc3ncc(OCc4ccccc4)cc3C2=O)n1 [compound 20] |  |
|  |  | O=C1c2ccc(OCc3ccccc3)nc2CCN1c1ccc(F)cc1 [2-(benzyloxy)-6-(4-fluorophenyl)-7,8-dihydro-1,6-naphthyridin-5(6H)-one] | 35% |
| > 30000 nM | 21% | CN1CCc2cc(COc3ccccc3)cnc2C1=O [compound 26] |  |
| > 10000 nM | 40% | COc1ccc(CN2CCc3nc(OCc4cccc(F)c4)ccc3C2=O)cc1C(F)(F)F [compound 3] |  |
| 1600 nM | 64% | COc1ccc(CN2CCc3ncc(COc4cccc(F)c4)cc3C2=O)cc1 [compound 12] |  |
| > 30000 nM | 15% | C[C@H](N1CCc2cc(COc3ccccc3)cnc2C1=O)C(C)(C)C [compound 27] |  |
| 441 nM | 49% | O=C1c2ccc(OCc3ccccc3)nc2CCN1CC1CCC1 [compound 24] |  |
| 360 nM | 66% | O=C1c2ccc(COc3cccc(F)c3)nc2CCN1c1ccc(F)cn1 [compound 7] |  |
| > 30000 nM | 43% | O=C1NCCc2cc(COc3ccccc3)cnc21 [compound 25] |  |
| 125 nM | 66% | O=C1c2ccc(OCc3ccccc3)nc2CCN1c1ccc(F)cc1 [compound 23] |  |
| 4200 nM | 39% | O=C1c2ccc(OCc3cccc(F)c3)nc2CCN1Cc1cccc(Cl)c1F [compound 2] |  |
| > 30000 nM |  | O=C1c2cc(OCc3ccccc3)cnc2CCN1c1ccccn1 [compound 17] |  |
| > 10000 nM | 40% | O=C1c2ccc(OCc3cccc(F)c3)nc2CCN1c1ccc(F)cn1 [compound 5] |  |
| 700 nM | 79% | O=C1NCCc2nc(OCc3ccccc3F)ccc21 [compound 10] |  |
| > 10000 nM | 43% | O=C1NCCc2ncc(OCc3ccccc3)cc21 [compound 15] |  |
| 190 nM | 55% | O=C1NCCc2nc(OCc3cccc(Cl)c3)ccc21 [compound 9] |  |
| > 10000 nM | 44% | CN1CCc2ncc(COc3cccc(F)c3)cc2C1=O [compound 13] |  |
| 2760 nM | 52% | O=C1c2cc(OCc3ccccc3)cnc2CCN1CC1CCC1 [compound 22] |  |
| > 30000 nM |  | O=C1c2cc(OCc3ccccc3)cnc2CCN1c1cccnc1 [compound 19] |  |
| 370 nM | 71% | O=C1NCCc2nc(OCc3cccc(F)c3)ccc21 [compound 1] |  |
| > 10000 nM | 67% | O=C1c2cc(OCc3ccccc3)cnc2CCN1c1ccc(F)cc1F [compound 18] |  |
| > 10000 nM | 34% | O=C1c2cc(OCc3ccccc3)cnc2CCN1c1ccc(F)cc1 [compound 21] |  |
| 980 nM | 41% | O=C1c2ccc(OCc3cccc(F)c3)nc2CCN1c1cccc(F)c1 [compound 4] |  |
